{"source": "paper PMC3303751", "about": "“Development of Tyrosine-Based Radiotracer ^99mTc-N4-Tyrosine for Breast Cancer Imaging” (Journal of Biomedicine and Biotechnology, 2012)", "key": {"[1]": {"assay": "Partition coefficient (1-octanol/sterile water)", "format": "physicochemical", "conditions": "room temperature", "protocol": "To determine the lipophilicity, 20 μL of ^99mTc-N4-Tyrosine was added into an equal volume mixture of 1-octanol and sterile water in a centrifuge tube. The mixture was vortexed at room temperature for 1 minute and then centrifuged at 5,000 rpm for 5 minutes to allow phase separation. From each phase, 0.1 mL of the aliquot was taken out, and the radioactivity was measured by gamma counter (Cobra Quantum, Packard, MN, USA). The measurement was repeated 3 times, and care was taken to avoid cross-contamination between the phases. The partition coefficient value, expressed as log P, was calculated using the following equation:\n(1) Log P= log(radioactivity in 1‐octanol layer/radioactivity in sterile water layer)"}, "[2]": {"system": "rat breast tumor cell line 13762", "assay": "In vitro cellular uptake", "format": "cell-based", "conditions": "13762 cells", "protocol": "Rat breast tumor cell line 13762 (American Type Culture Collection, Rockville, MD, USA) was used for both in vitro studies and to create the animal model for in vivo evaluation. All cells were maintained in Dulbecco's modified Eagle's medium and nutrient mixture F-12 Ham (DMEM/F12; GIBCO, Grand Island, NY) at 37°C in a humidified atmosphere containing 5% CO2.\nFor in vitro cellular uptake analysis, cells were plated onto 6-well tissue culture plates (2 × 10^5 cells/well) 48 hours before adding the radiotracers and incubated with ^99mTc-N4-Tyrosine (0.05 mg/well, 8 μCi/well), ^99mTc-N4 (0.025 mg/well, 8 μCi/well), or ^18F-FDG (8 μCi/well) for 0–4 hours. After incubation, cells were washed with ice-cold phosphate-buffered solution twice and detached using a treatment of 0.5 mL of trypsin for 5 minutes. Cells were then collected, and the radioactivity of the cells was measured in triplicate with a gamma counter (Cobra Quantum). Radioactivity was expressed as mean ± standard deviation (SD) percent of cellular uptake (%Uptake)."}, "[3]": {"assay": "OLINDA/EXM dosimetry estimates", "design": "species or system human (70 kg standard man model)", "source_text": "Rat absorbed dose estimates for ^99mTc-N4-Tyrosine were computed from biodistribution data. Individual organ and whole-body time-activity curves were fitted to exponential functions using OLINDA/EXM software (version 1.1; Vanderbilt University, Nashville, TN, USA). These functions were then integrated analytically to determine the area under the curve to yield the residence time of ^99mTc-N4-Tyrosine in each organ. It was assumed that the injected activity of ^99mTc-N4-Tyrosine was uniformly distributed throughout the body immediately following injection. Mass correction factors were used to account for the different ratios of organs to total body weight and different scaling of residence times between rats and humans. Residence times were then used to calculate target organ absorbed radiation doses for a 70 kg standard man model using the OLINDA/EXM software."}, "[4]": {"system": "breast tumor cell line 13762 tumors", "assay": "Planar scintigraphic imaging in breast tumor-bearing rats", "format": "in vivo, Fischer 344 rats", "conditions": "for Tumor %ID (percent of injected dose in the tumor) / tumor-to-muscle (T/M) ratio: i.v. 300 μCi/rat", "protocol": "Cells from the breast tumor cell line 13762, suspended in phosphate-buffered solution (10^5 cells/0.1 mL solution per rat), were injected subcutaneously into the right calf muscle of female Fischer 344 rats (n = 9). Planar scintigraphic imaging of ^99mTc-N4-Tyrosine was performed 12–14 days after inoculation when tumors reached approximately 1 cm in diameter. The breast tumor-bearing rats (n = 3/time point) were anesthetized and injected intravenously with ^99mTc-N4-Tyrosine (0.3 mg/rat, 300 μCi/rat), and images were acquired at 30, 120, and 240 minutes after administration of tracers. Planar scintigraphic images were obtained using M-CAM (Siemens Medical Solutions, Hoffman Estates, IL, USA) equipped with a low-energy high-resolution collimator. Computer-outlined regions of interest (ROIs in counts per pixel) between tumor and muscle tissue were used to calculate tumor-to-muscle (T/M) ratios. Percent of injected dose (%ID) in the tumor was also calculated from the reference standard, which was 1/10 of the original injection activity of ^99mTc-N4-Tyrosine."}, "[5]": {"system": "breast tumor (13762) and turpentine oil-induced inflammation", "assay": "Tumor and inflammation uptake comparison, planar scintigraphy", "format": "in vivo, Fischer 344 rats", "conditions": "tumor- and inflammation-bearing rats", "protocol": "To investigate whether ^99mTc-N4-Tyrosine can differentiate tumor tissue from inflammatory tissue, a rat model bearing both a mammary tumor and tissue with turpentine oil-induced inflammation was created. Rat breast tumor cells (from cell line 13762; 10^5 cells/0.1 mL phosphate-buffered solution per rat) were injected into the right calf muscles of 3 female Fischer 344 rats. After the tumors reached 1 cm in diameter, turpentine oil (0.1 mL/rat) was injected into the left calf muscles of the rats to induce inflammation. The anesthetized rats were injected intravenously with ^99mTc-N4-Tyrosine 24 hours after the turpentine injection. Planar scintigraphic images were acquired at 30, 120, and 240 minutes after the ^99mTc-N4-Tyrosine injection, and ROIs of the tumor, inflamed tissue, and muscle were used to calculate the tumor-to-muscle ratios (T/Ms), inflammation-to-muscle ratios (I/Ms), and tumor-to-inflammation ratios (T/Is), respectively. The same animal model was used to evaluate ^18F-FDG. Micro-PET imaging of ^18F-FDG was performed using an R4 micro-PET scanner (Concorde Microsystems, Knoxville, TN, USA). Three breast tumor- and inflammation-bearing rats were injected intravenously with ^18F-FDG (500 μCi/rat), and dynamic PET scans with a spatial resolution of 2.2 mm were obtained at 30, 60, and 90 minutes after ^18F-FDG injection. PET images were reconstructed by using the ordered subset expectation maximization (OSEM) algorithm. T/M, I/M, and T/I ratios were calculated using the regional radioactivity concentrations (μCi/cm^3) that were estimated from the average pixels within ROIs drawn around the tumor, inflamed tissue, or muscle on transverse slices of the reconstructed image sets."}, "[6]": {"conditions": "15 mCi per patient, 70 kg adult man"}}, "data": [{"substance": "^99mTc-O-[3-(1,4,8,11-tetraazabicyclohexadecane)-propyl]-tyrosine [^99mTc-N4-Tyrosine]", "values": [{"measurement": "log P", "setting": "[1]", "value": "−2.83 ± 0.082"}, {"measurement": "mean %Uptake compared with ^18F-FDG", "setting": "[2]; 8 μCi/well", "value": "much higher than that of ^18F-FDG"}, {"measurement": "cellular uptake kinetics (%Uptake)", "setting": "[2]; incubation 15-240 minutes", "value": "increased dramatically up to 240 minutes"}, {"measurement": "Human dose (15 mCi), Adrenals", "setting": "[3]; [6]", "value": 2.58, "unit": "E − 01 rem"}, {"measurement": "Human dose (15 mCi), Brain", "setting": "[3]; [6]", "value": 2.61, "unit": "E − 02 rem"}, {"measurement": "Human dose (15 mCi), Breasts", "setting": "[3]; [6]", "value": 7.08, "unit": "E − 02 rem"}, {"measurement": "Human dose (15 mCi), Effective dose", "setting": "[3]; [6]", "value": 1.22, "unit": "E − 01 rem"}, {"measurement": "Human dose (15 mCi), Effective dose equivalent", "setting": "[3]; [6]", "value": 3.17, "unit": "E − 01 rem"}, {"measurement": "Human dose (15 mCi), Gallbladder wall", "setting": "[3]; [6]", "value": 2.10, "unit": "E − 01 rem"}, {"measurement": "Human dose (15 mCi), Heart wall", "setting": "[3]; [6]", "value": 4.73, "unit": "E − 01 rem"}, {"measurement": "Human dose (15 mCi), Kidneys", "setting": "[3]; [6]", "value": 2.70, "unit": "E + 00 rem"}, {"measurement": "Human dose (15 mCi), Liver", "setting": "[3]; [6]", "value": 3.06, "unit": "E − 01 rem"}, {"measurement": "Human dose (15 mCi), Lower large intestine wall", "setting": "[3]; [6]", "value": 9.00, "unit": "E − 02 rem"}, {"measurement": "Human dose (15 mCi), Lungs", "setting": "[3]; [6]", "value": 1.26, "unit": "E − 01 rem"}, {"measurement": "Human dose (15 mCi), Muscle", "setting": "[3]; [6]", "value": 7.44, "unit": "E − 02 rem"}, {"measurement": "Human dose (15 mCi), Osteogenic cells", "setting": "[3]; [6]", "value": 2.90, "unit": "E − 01 rem"}, {"measurement": "Human dose (15 mCi), Ovaries", "setting": "[3]; [6]", "value": 9.80, "unit": "E − 02 rem"}, {"measurement": "Human dose (15 mCi), Pancreas", "setting": "[3]; [6]", "value": 2.09, "unit": "E − 01 rem"}, {"measurement": "Human dose (15 mCi), Red marrow", "setting": "[3]; [6]", "value": 1.06, "unit": "E − 01 rem"}, {"measurement": "Human dose (15 mCi), Skin", "setting": "[3]; [6]", "value": 4.95, "unit": "E − 02 rem"}, {"measurement": "Human dose (15 mCi), Small intestine", "setting": "[3]; [6]", "value": 1.50, "unit": "E − 01 rem"}, {"measurement": "Human dose (15 mCi), Spleen", "setting": "[3]; [6]", "value": 3.14, "unit": "E − 01 rem"}, {"measurement": "Human dose (15 mCi), Stomach wall", "setting": "[3]; [6]", "value": 1.38, "unit": "E − 01 rem"}, {"measurement": "Human dose (15 mCi), Testes", "setting": "[3]; [6]", "value": 4.40, "unit": "E − 02 rem"}, {"measurement": "Human dose (15 mCi), Thymus", "setting": "[3]; [6]", "value": 1.27, "unit": "E − 01 rem"}, {"measurement": "Human dose (15 mCi), Thyroid", "setting": "[3]; [6]", "value": 6.92, "unit": "E − 02 rem"}, {"measurement": "Human dose (15 mCi), Total Body", "setting": "[3]; [6]", "value": 1.10, "unit": "E − 01 rem"}, {"measurement": "Human dose (15 mCi), Upper large intestine wall", "setting": "[3]; [6]", "value": 1.36, "unit": "E − 01 rem"}, {"measurement": "Human dose (15 mCi), Urinary bladder wall", "setting": "[3]; [6]", "value": 7.71, "unit": "E − 02 rem"}, {"measurement": "Human dose (15 mCi), Uterus", "setting": "[3]; [6]", "value": 9.80, "unit": "E − 02 rem"}, {"measurement": "Total rem absorbed by each organ versus US FDA limits for radioactive research drugs", "setting": "[3]; proposed injection of 15 mCi per patient", "value": "below these limits"}, {"measurement": "tumor detection by planar scintigraphic imaging", "setting": "[4]; all time points (30, 120, 240 minutes)", "value": "clearly detected"}, {"measurement": "Tumor %ID (percent of injected dose in the tumor)", "setting": "[4]; 30 minutes", "value": 1.82, "unit": "%ID"}, {"measurement": "tumor-to-muscle (T/M) ratio", "setting": "[4]; 30 minutes", "value": 5.12}, {"measurement": "Tumor %ID (percent of injected dose in the tumor)", "setting": "[4]; 120 minutes", "value": 1.87, "unit": "%ID"}, {"measurement": "tumor-to-muscle (T/M) ratio", "setting": "[4]; 120 minutes", "value": 4.88}, {"measurement": "Tumor %ID (percent of injected dose in the tumor)", "setting": "[4]; 240 minutes", "value": 1.71, "unit": "%ID"}, {"measurement": "tumor-to-muscle (T/M) ratio", "setting": "[4]; 240 minutes", "value": 5.2}, {"measurement": "inflammation-to-muscle (I/M) ratio", "setting": "[5]; 30 min", "value": 4.26}, {"measurement": "tumor-to-inflammation (T/I) ratio", "setting": "[5]; 30 min", "value": 1.2}, {"measurement": "tumor-to-muscle (T/M) ratio", "setting": "[5]; 30 min", "value": 5.12}, {"measurement": "inflammation-to-muscle (I/M) ratio", "setting": "[5]; 120 min", "value": 3.62}, {"measurement": "tumor-to-inflammation (T/I) ratio", "setting": "[5]; 120 min", "value": 1.14}, {"measurement": "tumor-to-muscle (T/M) ratio", "setting": "[5]; 120 min", "value": 4.11}, {"measurement": "inflammation-to-muscle (I/M) ratio", "setting": "[5]; 240 min", "value": 2.45}, {"measurement": "tumor-to-inflammation (T/I) ratio", "setting": "[5]; 240 min", "value": 1.32}, {"measurement": "tumor-to-muscle (T/M) ratio", "setting": "[5]; 240 min", "value": 3.24}, {"measurement": "tumor-to-inflammation (T/I) ratios", "setting": "[5]; all time points", "value": "greater than 1"}]}]}
